The record followed here is ChEMBL document CHEMBL3991601, “The target landscape of clinical kinase drugs” (Science, 2017).

Assay [1] has as its target T1, Cyclin-G-associated kinase (Homo sapiens, UniProt O14976).
T1 sequence (O14976 whole entry): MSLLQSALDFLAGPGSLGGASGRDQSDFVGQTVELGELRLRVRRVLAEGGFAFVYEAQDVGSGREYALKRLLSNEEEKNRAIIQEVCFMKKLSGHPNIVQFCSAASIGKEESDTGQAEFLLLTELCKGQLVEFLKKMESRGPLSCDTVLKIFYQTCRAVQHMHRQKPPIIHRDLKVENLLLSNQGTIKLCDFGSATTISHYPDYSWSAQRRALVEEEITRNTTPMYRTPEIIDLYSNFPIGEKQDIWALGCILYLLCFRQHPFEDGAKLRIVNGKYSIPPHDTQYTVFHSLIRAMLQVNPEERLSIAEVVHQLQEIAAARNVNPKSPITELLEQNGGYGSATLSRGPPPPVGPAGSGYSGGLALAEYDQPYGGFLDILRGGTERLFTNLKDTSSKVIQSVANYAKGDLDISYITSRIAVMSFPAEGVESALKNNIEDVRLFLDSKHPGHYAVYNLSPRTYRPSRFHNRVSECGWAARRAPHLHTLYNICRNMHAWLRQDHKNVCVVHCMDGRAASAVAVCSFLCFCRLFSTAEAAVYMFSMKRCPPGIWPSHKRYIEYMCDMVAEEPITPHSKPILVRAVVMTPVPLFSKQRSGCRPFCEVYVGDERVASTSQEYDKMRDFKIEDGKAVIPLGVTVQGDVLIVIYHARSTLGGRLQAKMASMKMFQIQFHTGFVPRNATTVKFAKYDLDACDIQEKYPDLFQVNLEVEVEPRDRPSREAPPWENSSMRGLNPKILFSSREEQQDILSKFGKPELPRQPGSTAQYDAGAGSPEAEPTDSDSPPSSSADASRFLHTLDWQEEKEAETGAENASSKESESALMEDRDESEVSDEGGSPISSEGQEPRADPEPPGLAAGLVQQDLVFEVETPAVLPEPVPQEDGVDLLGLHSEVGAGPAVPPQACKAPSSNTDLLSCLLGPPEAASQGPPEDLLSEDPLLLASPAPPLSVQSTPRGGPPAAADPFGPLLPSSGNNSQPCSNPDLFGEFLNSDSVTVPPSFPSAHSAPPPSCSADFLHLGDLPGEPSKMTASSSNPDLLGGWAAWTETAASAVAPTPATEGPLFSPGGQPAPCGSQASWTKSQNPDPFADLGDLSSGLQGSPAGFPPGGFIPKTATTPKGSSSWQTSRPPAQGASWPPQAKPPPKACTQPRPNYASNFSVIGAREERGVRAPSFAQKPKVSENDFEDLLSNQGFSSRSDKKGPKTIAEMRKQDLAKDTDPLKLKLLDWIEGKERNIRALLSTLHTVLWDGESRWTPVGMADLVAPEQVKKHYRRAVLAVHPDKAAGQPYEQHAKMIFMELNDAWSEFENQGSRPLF

Assay [2] deals with Mitogen-activated protein kinase 3 (Homo sapiens, UniProt P27361).
Assay [3] addresses T2, Serine/threonine-protein kinase Nek1 (Homo sapiens, UniProt Q96PY6).
T2 sequence (Q96PY6 whole entry): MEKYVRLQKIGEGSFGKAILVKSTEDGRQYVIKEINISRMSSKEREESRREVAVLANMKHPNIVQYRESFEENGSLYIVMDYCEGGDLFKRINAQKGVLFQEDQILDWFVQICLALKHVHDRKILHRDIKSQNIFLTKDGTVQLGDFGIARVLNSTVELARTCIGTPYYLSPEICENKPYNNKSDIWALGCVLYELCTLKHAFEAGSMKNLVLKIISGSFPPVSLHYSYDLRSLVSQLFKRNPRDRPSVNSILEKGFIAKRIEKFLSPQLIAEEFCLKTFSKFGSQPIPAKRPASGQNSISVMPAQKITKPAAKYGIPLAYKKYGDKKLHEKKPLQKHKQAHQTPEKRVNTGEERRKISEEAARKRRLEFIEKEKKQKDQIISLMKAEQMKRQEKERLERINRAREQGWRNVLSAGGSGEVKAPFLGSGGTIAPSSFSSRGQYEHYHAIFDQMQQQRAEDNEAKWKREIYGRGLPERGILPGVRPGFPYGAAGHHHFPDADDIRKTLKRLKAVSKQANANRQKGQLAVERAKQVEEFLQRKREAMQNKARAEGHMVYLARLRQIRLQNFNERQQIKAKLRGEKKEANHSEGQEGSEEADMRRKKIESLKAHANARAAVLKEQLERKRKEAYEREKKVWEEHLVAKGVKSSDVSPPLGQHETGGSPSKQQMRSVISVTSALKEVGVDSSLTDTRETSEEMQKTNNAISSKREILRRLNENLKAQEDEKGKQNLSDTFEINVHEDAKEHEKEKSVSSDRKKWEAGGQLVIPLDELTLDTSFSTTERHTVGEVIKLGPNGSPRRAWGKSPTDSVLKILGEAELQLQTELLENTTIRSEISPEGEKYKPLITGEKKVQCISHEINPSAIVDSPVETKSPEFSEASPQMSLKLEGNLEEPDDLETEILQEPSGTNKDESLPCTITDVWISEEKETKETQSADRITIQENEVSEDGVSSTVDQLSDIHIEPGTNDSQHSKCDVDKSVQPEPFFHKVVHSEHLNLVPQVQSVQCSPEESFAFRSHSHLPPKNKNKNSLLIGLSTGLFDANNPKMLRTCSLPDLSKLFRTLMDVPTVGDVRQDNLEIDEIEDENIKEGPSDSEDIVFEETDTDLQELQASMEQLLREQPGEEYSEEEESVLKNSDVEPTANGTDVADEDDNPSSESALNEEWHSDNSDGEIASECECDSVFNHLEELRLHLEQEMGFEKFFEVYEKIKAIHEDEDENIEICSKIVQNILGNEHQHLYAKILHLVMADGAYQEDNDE

The source made the active and inactive calls.
Also: in the data inactive means no Kd found up to 30 µM.

Mitogen-activated protein kinase 3, sequence (P27361 whole entry): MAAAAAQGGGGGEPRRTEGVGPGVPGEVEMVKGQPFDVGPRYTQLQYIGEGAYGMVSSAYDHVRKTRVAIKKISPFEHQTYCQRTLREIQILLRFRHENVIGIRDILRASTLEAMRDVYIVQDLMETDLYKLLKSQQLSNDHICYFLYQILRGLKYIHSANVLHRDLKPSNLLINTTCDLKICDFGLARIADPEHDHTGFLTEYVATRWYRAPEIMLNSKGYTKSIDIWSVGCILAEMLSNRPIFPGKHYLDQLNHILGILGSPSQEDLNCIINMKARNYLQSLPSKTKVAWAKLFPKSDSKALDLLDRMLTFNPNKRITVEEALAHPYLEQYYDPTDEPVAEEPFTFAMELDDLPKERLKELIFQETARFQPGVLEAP

In the case of `Cc1nc2cc(-n3ncc(C(=O)c4cc5ccccc5[nH]4)c3N)ccc2[nH]1` [FGFR INHIBITOR DEBIO 1347], the Kd in assay [1], in assay [2] and in assay [3] was > 30 µM (inactive) each time.
With `O=C(Nc1nc2cccc(-c3ccc(CN4CCS(=O)(=O)CC4)cc3)n2n1)C1CC1` [FILGOTINIB], the Kd in assay [1], in assay [2] and in assay [3] was > 30 µM (inactive) in each case.
Take `Cc1cccc(-c2nn3c(c2-c2ccnc4ccc(C(N)=O)cc24)CCC3)n1` [GALUNISERTIB]: the Kd (usually the constant that tells how readily two partners part at equilibrium) was 0.495 µM (active) in assay [1], > 30 µM (inactive) in assay [2] and > 30 µM (inactive) in assay [3].
As to `COc1ccc(S(=O)(=O)N(C(C)=O)c2ccccc2/C=C/c2cc[n+]([O-])cc2)cc1` [HMN-214], the Kd in assay [1], in assay [2] and in assay [3] was > 30 µM (inactive) in each case.
On to `O=C(Nc1cc(C(F)(F)F)cc(C(F)(F)F)c1)c1cc(Cl)ccc1O` [IMD-0354], for which the Kd in assay [1], in assay [2] and in assay [3] was > 30 µM (inactive) in each case.
As to `CNC(=O)c1cccc2cc(Oc3ccnc4cc(OCC5(N)CC5)c(OC)cc34)ccc12` [LUCITANIB], the Kd in assay [1], in assay [2] and in assay [3] was > 30 µM (inactive) throughout.
With `CNC(=O)c1nn(C)c2c1C(C)(C)Cc1cnc(Nc3ccc(N4CCN(C)CC4)cc3)nc1-2` [MILCICLIB], the dissociation constant Kd is 0.003 µM (active) in assay [1], > 30 µM (inactive) in assay [2] and > 30 µM (inactive) in assay [3].
Turning to `NC1(c2ccc(-c3nc4ccn5c(=O)[nH]nc5c4cc3-c3ccccc3)cc2)CCC1` [MK-2206], the Kd in assay [1], in assay [2] and in assay [3] was > 30 µM (inactive) throughout.
On to `CN(C[C@@H]1COCCO1)S(=O)(=O)Nc1ccc2ccc3ncc(-c4cnn(C)c4)cc3c(=O)c2c1` [MK-2461], for which the Kd in assay [1], in assay [2] and in assay [3] was > 30 µM (inactive) in each case.
Take `Cn1cc(-c2cnc3ccc4ccc(CS(=O)(=O)NCc5ccccn5)cc4c(=O)c3c2)cn1` [MK-8033]: the Kd in assay [1], in assay [2] and in assay [3] was > 30 µM (inactive) throughout.
`FC(F)(F)c1ccc(/C=C/c2nc(COc3ccc(CCCCn4ccnn4)cc3)co2)cc1` [MUBRITINIB]: the Kd in assay [1], in assay [2] and in assay [3] was > 30 µM (inactive) each time.
For `COc1ncc(-c2ccc3nccc(-c4ccnnc4)c3c2)cc1NS(=O)(=O)c1ccc(F)cc1F` [OMIPALISIB], the Kd in assay [1], in assay [2] and in assay [3] was > 30 µM (inactive) in each case.
For `Cc1[nH]c(/C=C2\C(=O)Nc3ccccc32)c(C)c1CCC(=O)O` [ORANTINIB], the dissociation constant (Kd) in assay [1] is 2.09 µM (active); in assay [2], > 30 µM (inactive); in assay [3], > 30 µM (inactive).
With `NC(=O)c1c(OCc2c(F)cc(Br)cc2F)nsc1NC(=O)NCCCCN1CCCC1` [OSI-632], the Kd in assay [1], in assay [2] and in assay [3] was > 30 µM (inactive) each time.
In the case of `CCCCCCCCCCCCCCCCCCOP(=O)([O-])OC1CC[N+](C)(C)CC1` [PERIFOSINE], the Kd in assay [1], in assay [2] and in assay [3] was > 30 µM (inactive) each time.
Consider `Cc1nc(Nc2n[nH]c3c2CN(C(=O)N[C@H](CN(C)C)c2ccccc2)C3(C)C)c2sccc2n1` [PF-03758309], for which the Kd was 1.95 µM (active) in assay [1], 3.87 µM (active) in assay [2] and > 30 µM (inactive) in assay [3].
On the same counts, the results for `CC(=O)NCC(=O)N1[C@@H]2CC[C@H]1c1ccc(Nc3ncc(C(F)(F)F)c(NC4CCC4)n3)cc12` [PF-03814735] are 1.76 µM (active), > 30 µM (inactive) and > 30 µM (inactive).
On the same counts, the results for `Cc1cnc(NC(=O)Nc2cc(Br)c(C)cc2OC[C@@H]2CNCCO2)cn1` [RABUSERTIB] are > 30 µM (inactive), > 30 µM (inactive) and > 30 µM (inactive).
The matching figures for `CNC(=O)c1cc(Oc2ccc(NC(=O)Nc3cc(C(C)(C)C)nn3-c3ccc4ncccc4c3)c(F)c2)ccn1` [REBASTINIB]: > 30 µM (inactive), > 30 µM (inactive) and > 30 µM (inactive).
On to `CO[C@H]1C[C@@H]2CC[C@@H](C)[C@@](O)(O2)C(=O)C(=O)N2CCCC[C@H]2C(=O)O[C@H]([C@H](C)C[C@@H]2CC[C@@H](OP(C)(C)=O)[C@H](OC)C2)CC(=O)[C@H](C)/C=C(\C)[C@@H](O)[C@@H](OC)C(=O)[C@H](C)C[C@H](C)/C=C/C=C/C=C/1C` [RIDAFOROLIMUS], for which the Kd in assay [1], in assay [2] and in assay [3] was > 30 µM (inactive) in each case.
On to `N#CC1(c2ccc(NC(=O)c3cccnc3NCc3ccncc3)cc2)CCCC1` [RIVOCERANIB], for which the Kd in assay [1], in assay [2] and in assay [3] was > 30 µM (inactive) in each case.
As for `O=c1[nH]ccc2cc(OC3CCNCC3)ccc12` [SAR-407899 FREE BASE], the Kd in assay [1], in assay [2] and in assay [3] was > 30 µM (inactive) each time.
As for `Cn1cc(-c2cnn3c(N)c(Br)c([C@@H]4CCCNC4)nc23)cn1` [SCH-900776], the Kd in assay [1], in assay [2] and in assay [3] was > 30 µM (inactive) each time.
As for `CO[C@H]1C[C@@H]2CC[C@@H](C)[C@@](O)(O2)C(=O)C(=O)N2CCCC[C@H]2C(=O)O[C@H]([C@H](C)C[C@@H]2CC[C@@H](O)[C@H](OC)C2)CC(=O)[C@H](C)/C=C(\C)[C@@H](O)[C@@H](OC)C(=O)[C@H](C)C[C@H](C)/C=C/C=C/C=C/1C` [SIROLIMUS], the Kd in assay [1], in assay [2] and in assay [3] was > 30 µM (inactive) in each case.
Consider `CCS(=O)(=O)c1cccc(-c2cc(C(=O)NC3CCN(C)CC3)c(C)c3[nH]c4ncc(C)cc4c23)c1` [TAK-901], for which the Kd in assay [1], in assay [2] and in assay [3] was > 30 µM (inactive) each time.
